Entries after “also recorded” stand apart in the source; their conditions may differ.
Legend:
Assay type in all cases: biochemical
HDAC3 = biological target: T1, HDAC3 (Homo sapiens, UniProt O15379); test: HDAC enzymatic assay (Reaction Biology), HDAC3
T1 construct: purchased Reaction Biology
Method: (§1) Compound 1 was tested in an enzymatic assay from Reaction Biology® against 10 HDAC isoforms. The IC50 values were derived from a 10-dose response curve.
(§2) Base Reaction buffer: 50 mM Tris-HCl, pH8.0, 137 mM NaCl, 2.7 mM KCl, and 1 mM MgCl2, Add fresh: 1 mg/ml BSA, 1% DMSO
(§3) Fluorogenic HDAC General Substrate (HDAC1, HDAC2, HDAC3, HDAC6, HDAC10, and HDAC11): 50 μM, Arg-His-Lys-Lys(Ac)-AMC
(§4) 1. Delivered 2× enzyme in wells of reaction plate except in the control wells and added buffer to control wells. 2. Delivered compounds in 100% DMSO into the enzyme mixture by Acoustic technology (Echo550; nanoliter range). Spin down and pre-incubation. 3. Delivered 2× Substrate Mixture (Fluorogenic HDAC Substrate and co-factor if applicable) in all reaction wells to initiate the reaction. Spin and shake. 4. Incubated for 30 min for Class 2A, 1 h for HDAC1, 2, 3, and 6, and 2 h for the rest of HDAC isoforms and SIRTs at 30° C. with seal.
(§5) 5. Added Developer with Trichostatin A (or Nicotinamide for SIRTs) to stop the reaction and to generate fluorescent color. 6. The fluorescence that was generated was detected with excitation (Ex) at […] and emission (Em) at 460 nM by the EnVision Multilabel Plate Reader (PerkinElmer®, Santa Clara, Calif., USA).
(§6) IC50 values were derived from a 10-dose response curve.

HDAC7 = biological target: T2, HDAC7 (Homo sapiens, UniProt Q8WUI4); test: HDAC enzymatic assay (Reaction Biology), HDAC7; settings: summary of Table 1
T2 construct: purchased Reaction Biology
T2 sequence (Q8WUI4 1-952): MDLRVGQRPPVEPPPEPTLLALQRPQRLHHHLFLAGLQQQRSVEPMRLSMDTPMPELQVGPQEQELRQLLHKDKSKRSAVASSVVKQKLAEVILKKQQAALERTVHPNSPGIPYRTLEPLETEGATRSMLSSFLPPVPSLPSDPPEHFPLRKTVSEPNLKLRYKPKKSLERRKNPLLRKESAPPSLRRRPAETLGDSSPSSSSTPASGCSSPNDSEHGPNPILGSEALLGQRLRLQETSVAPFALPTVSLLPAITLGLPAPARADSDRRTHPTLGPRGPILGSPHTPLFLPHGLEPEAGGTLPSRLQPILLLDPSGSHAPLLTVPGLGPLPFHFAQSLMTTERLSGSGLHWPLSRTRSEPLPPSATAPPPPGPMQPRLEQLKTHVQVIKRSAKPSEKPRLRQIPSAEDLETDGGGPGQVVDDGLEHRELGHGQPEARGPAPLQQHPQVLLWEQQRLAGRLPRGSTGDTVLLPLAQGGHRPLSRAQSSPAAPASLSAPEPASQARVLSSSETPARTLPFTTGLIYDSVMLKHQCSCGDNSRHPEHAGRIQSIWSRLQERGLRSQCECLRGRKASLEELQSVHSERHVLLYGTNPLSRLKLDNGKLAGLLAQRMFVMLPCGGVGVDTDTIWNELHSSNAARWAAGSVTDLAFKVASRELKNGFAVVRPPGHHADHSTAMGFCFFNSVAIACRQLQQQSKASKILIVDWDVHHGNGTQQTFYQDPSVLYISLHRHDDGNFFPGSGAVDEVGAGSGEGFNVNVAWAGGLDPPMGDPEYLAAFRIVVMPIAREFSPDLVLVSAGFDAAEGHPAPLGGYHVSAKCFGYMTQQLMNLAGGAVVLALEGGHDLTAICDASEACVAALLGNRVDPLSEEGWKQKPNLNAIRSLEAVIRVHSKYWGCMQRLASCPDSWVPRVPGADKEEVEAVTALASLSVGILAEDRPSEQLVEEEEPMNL
Method: as §1, §2
(§7) Class2A Substrate (HDAC4, HDAC5, HDAC7, and HDAC9): Boc-Lys(trifluoroacetyl)-AMC
as §4, §5, §6

HDAC1 = biological target: T3, HDAC1 (Homo sapiens, UniProt Q13547); test: HDAC enzymatic assay (Reaction Biology), HDAC1
T3 construct: purchased Reaction Biology
T3 sequence (Q13547 whole entry): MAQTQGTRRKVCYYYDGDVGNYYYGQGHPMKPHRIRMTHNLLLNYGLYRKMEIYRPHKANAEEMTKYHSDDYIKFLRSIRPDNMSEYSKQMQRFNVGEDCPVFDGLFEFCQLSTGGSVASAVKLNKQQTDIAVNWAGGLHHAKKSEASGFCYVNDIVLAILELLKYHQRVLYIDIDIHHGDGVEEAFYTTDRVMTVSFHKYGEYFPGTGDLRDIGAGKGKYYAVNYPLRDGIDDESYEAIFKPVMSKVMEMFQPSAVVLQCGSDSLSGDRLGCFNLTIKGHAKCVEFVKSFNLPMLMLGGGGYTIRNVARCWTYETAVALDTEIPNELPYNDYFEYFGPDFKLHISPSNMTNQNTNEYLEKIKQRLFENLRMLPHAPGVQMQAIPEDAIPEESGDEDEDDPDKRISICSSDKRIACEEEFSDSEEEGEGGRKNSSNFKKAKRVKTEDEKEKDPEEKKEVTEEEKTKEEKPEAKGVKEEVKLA
Method: as §1, §2, §3, §4, §5, §6

HDAC2 = biological target: T4, HDAC2 (Homo sapiens, UniProt Q92769); test: HDAC enzymatic assay (Reaction Biology), HDAC2
T4 construct: purchased Reaction Biology
T4 sequence (Q92769 whole entry): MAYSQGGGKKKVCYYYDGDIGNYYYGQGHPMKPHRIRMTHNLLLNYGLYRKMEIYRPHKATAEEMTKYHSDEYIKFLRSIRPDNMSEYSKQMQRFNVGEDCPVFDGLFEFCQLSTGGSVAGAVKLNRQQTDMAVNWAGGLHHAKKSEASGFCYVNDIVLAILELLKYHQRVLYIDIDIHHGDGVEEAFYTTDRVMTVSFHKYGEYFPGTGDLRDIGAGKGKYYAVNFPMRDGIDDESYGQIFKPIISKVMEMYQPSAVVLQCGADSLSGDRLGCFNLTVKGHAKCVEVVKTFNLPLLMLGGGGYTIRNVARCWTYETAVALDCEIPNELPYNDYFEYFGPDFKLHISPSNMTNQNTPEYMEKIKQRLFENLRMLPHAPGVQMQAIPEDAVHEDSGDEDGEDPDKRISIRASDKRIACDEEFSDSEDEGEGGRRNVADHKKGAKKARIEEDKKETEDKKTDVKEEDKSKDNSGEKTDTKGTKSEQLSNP
Method: as §1, §2, §3, §4, §5, §6

HDAC5 = biological target: T5, HDAC5 (Homo sapiens, UniProt Q9UQL6); test: HDAC enzymatic assay (Reaction Biology), HDAC5
T5 construct: purchased Reaction Biology
T5 sequence (Q9UQL6 whole entry): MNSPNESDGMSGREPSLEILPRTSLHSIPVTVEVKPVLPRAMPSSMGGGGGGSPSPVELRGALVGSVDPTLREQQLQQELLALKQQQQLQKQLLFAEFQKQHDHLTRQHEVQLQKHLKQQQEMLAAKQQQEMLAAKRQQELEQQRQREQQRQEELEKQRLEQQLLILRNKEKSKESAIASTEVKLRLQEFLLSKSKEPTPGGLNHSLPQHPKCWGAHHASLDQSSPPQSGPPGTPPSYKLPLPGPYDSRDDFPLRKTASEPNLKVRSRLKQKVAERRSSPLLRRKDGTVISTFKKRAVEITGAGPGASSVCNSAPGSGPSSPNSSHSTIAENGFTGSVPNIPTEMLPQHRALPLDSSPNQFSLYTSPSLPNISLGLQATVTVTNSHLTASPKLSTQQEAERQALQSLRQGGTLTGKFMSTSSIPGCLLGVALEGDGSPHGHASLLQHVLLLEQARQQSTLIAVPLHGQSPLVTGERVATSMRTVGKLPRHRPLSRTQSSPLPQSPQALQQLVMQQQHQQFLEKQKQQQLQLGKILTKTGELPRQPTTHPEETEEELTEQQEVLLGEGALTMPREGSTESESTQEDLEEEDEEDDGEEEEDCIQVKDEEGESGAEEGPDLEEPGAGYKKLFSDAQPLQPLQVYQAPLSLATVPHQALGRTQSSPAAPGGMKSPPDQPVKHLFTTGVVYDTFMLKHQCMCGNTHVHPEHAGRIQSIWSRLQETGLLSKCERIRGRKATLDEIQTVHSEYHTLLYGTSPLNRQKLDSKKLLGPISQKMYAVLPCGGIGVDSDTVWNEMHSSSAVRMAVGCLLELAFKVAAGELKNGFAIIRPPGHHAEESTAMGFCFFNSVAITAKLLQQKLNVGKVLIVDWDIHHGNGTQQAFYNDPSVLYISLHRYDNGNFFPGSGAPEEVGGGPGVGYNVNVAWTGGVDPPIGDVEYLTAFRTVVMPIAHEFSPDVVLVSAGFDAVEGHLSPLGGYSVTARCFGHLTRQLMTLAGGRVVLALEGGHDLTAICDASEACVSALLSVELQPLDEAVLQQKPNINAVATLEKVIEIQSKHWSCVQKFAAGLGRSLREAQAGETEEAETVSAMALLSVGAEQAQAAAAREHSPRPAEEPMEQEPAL
Method: as §1, §2, §7, §4, §5, §6

HDAC8 = biological target: T6, HDAC8 (Homo sapiens, UniProt Q9BY41); test: HDAC enzymatic assay (Reaction Biology), HDAC8
T6 construct: purchased Reaction Biology
T6 sequence (Q9BY41 1-377): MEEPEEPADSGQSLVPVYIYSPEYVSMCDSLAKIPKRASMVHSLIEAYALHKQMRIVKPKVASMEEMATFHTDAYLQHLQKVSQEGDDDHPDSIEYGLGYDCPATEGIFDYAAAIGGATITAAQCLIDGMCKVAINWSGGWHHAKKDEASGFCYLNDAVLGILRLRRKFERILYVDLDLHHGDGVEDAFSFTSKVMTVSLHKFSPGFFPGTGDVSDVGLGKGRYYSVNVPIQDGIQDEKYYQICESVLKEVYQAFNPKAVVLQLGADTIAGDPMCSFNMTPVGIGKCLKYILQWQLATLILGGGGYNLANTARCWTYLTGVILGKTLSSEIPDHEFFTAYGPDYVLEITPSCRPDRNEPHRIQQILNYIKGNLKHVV
Method: as §1, §2
(HDAC8 only substrate: 50 μM, Arg-His-Lys(Ac)-Lys(Ac))-AMC
as §4, §5, §6

T1 sequence (O15379 whole entry): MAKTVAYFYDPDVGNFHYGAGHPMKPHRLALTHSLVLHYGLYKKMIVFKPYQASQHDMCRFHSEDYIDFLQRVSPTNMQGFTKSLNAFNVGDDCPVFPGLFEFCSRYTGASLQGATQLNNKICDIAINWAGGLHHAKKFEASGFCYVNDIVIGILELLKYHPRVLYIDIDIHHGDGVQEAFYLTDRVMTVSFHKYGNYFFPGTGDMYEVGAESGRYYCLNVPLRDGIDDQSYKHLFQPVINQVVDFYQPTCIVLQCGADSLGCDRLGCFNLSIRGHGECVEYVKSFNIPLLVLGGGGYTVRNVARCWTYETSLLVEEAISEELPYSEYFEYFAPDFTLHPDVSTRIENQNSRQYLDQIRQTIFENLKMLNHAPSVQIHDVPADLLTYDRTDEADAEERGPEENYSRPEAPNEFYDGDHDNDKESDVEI
T1 sequence (Q9Y618 395-489 partner limits assumed): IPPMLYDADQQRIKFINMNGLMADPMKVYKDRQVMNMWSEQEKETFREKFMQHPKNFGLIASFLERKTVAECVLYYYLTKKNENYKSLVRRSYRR

O=C(/C=C/c1ccc(CN(CCOCCOCCNc2cccc3c2C(=O)N(C2CCC(=O)NC2=O)C3=O)CCc2c[nH]c3ccccc23)cc1)NO (centres unmarked) [Compound 1, (E)-3-(4-(((2-(1H-indol-3-yl)ethyl)(2-(2-(2-((2-(2,6-dioxopiperidin-3-yl)-1,3-dioxoisoindolin-4-yl)amino)ethoxy)ethoxy)ethyl)amino)methyl)phenyl)-N-hydroxyacrylamide]
IC50 (HDAC3; 10-dose response curve, read-out: Compound IC50 (M), HDAC3): 1.29e-06 M | inhibition of enzymatic activity of HDAC3 (in words) (HDAC3; summary of Table 1): Moderate inhibition | inhibition of enzymatic activity of HDAC7 (in words) (HDAC7): did not inhibit | IC50 (HDAC1; 10-dose response curve, read-out: Compound IC50 (M), HDAC1): 1.06e-06 M | inhibition of enzymatic activity of HDAC1 (in words) (HDAC1; summary of Table 1): Moderate inhibition | IC50 (HDAC2; 10-dose response curve, read-out: Compound IC50 (M), HDAC2): 3.48e-06 M | inhibition of enzymatic activity of HDAC2 (in words) (HDAC2; summary of Table 1): Moderate inhibition | IC50 (HDAC5; 10-dose response curve, read-out: Compound IC50 (M), HDAC5): > 2e-05 M | inhibition of enzymatic activity of HDAC5 (in words) (HDAC5; summary of Table 1): did not inhibit | IC50 (HDAC8; 10-dose response curve, read-out: Compound IC50 (M), HDAC8): 4.51e-06 M | inhibition of enzymatic activity of HDAC8 (in words) (HDAC8; summary of Table 1): potently inhibited; also recorded: Moderate inhibition
